The text below walks through data of PMC11187126, “Structure and dynamics of the pyroglutamylated RF-amide peptide QRFP receptor GPR103” (Nature Communications, 2024).

No end group written: not given here.

This experiment deals with T1, GPR103 C98^2.57A (Homo sapiens, UniProt Q96P65, C98A).
T1 construct: we used human full-length QRFPR-encoding plasmids; expressed in transfected cells; host or cells: HEK293 cells, pCAGGS vector
T1 sequence (Q96P65 1-431 C98A): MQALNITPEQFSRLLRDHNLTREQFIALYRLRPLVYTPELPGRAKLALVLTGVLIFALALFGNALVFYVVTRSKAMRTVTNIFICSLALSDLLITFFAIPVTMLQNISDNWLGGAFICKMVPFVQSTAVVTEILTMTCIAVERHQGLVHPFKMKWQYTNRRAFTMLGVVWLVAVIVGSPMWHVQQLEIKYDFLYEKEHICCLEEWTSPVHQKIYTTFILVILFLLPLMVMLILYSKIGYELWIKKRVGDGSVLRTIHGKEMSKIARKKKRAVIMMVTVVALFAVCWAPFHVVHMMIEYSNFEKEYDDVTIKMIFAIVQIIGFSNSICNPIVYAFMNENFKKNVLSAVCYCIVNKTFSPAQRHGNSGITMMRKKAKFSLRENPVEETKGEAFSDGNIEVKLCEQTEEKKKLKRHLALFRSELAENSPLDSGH
Kind of experiment: TGFα shedding assay; Exp. level WT (1:50). The experiment is classed as cell-based. On the procedure: For the TGFα shedding assay and the flow cytometry analysis, we used human full-length QRFPR-encoding plasmids. Specifically, GPR103 was N-terminally modified with an HA signal sequence followed by a FLAG epitope and then a flexible linker ([…]; the FLAG epitope is underlined) and inserted into the pCAGGS vector. Plasmid encoding GPR103 mutants were generated using Quickchange Site-Directed Mutagensis kit (Agilent).
The TGFα shedding assay was performed as described previously with minor modifications. Plasmid transfection was performed in a 6-well plate with a mixture of 500 ng (per well in a 6-well plate) AP-TGFα-encoding plasmid and 200 ng GPR103-encoding plasmid. After 1-day culture, the transfected cells were harvested by trypsinization, pelleted by centrifugation at 190 × g for 5 min, and washed once with 5 mM HEPES (pH 7.4)-containing Hank’s Balanced Salt Solution (HBSS). After centrifugation, the cells were resuspended in 8 mL of the HEPES-containing HBSS. The cell suspension was seeded in a 96-well culture plate (cell plate) at a volume of 90 μL (per well hereafter) and incubated in a 37 °C incubator with 5% CO2 for 30 min. […] After spinning the cell plates at 190 × g for 2 min, 80 μL of conditioned media was transferred to an empty 96-well plate (conditioned media (CM) plate). Then, 80 μL of AP reaction solution (10 mM p-nitrophenylphosphate (p-NPP), 120 mM Tris-HCl (pH 9.5), 40 mM NaCl, and 10 mM MgCl2) was dispensed into the cell plates and the CM plates. Absorbance at 405 nm of the plates was measured using a microplate reader (SpectraMax 340 PC384, Molecular Devices) before and after 1-h incubation at room temperature. Ligand-induced AP-TGFα release was calculated by subtracting spontaneous AP-TGFα release signal from ligand-induced AP-TGFα release signal. The AP-TGFα release signals were fitted to a four-parameter sigmoidal concentration–response curve, using the Prism 10 software (GraphPad Prism). For each replicate experiment, the pEC50 parameter (negative logarithmic values of EC50 values) of the individual GPR103 mutants were normalized to that of the wild-type GPR103 performed in parallel, and resulting ∆pEC50 values were used to denote ligand response activity of the mutants. […]
Exp. le vel: WT (1:5 0)Exp. le vel: WT (1:5 0)Exp. le vel: WT (1:5 0)Exp. le vel: WT (1:2 0)Exp. le vel: WT (1:2 0)Exp. le vel: WT (1:1 0) […]
L1 4N - t e r mA F2 5N - t e r mA I 2 6N - t e r mA Y 2 9N - t e r mA C 9 82 .5 7A T10 22 .6 1A Exp . l eve l: WT (1 :5)Exp . l evel : >WT (1 :1)Exp. le vel: WT (1:2 0)Exp. le vel: WT (1:2 0)Exp. le vel: WT (1:5 0)Exp . l eve l: WT (1 :1) […]
Exp. le vel: WT (1:1 0)Exp. le vel: WT (1:2 0) C 1 1 83 .2 5AExp. le vel: WT (1:5 0)Exp. le vel: WT (1:5 0)Exp. le vel: WT (1:2 0)Exp . l eve l: WT (1 :5) […]
Exp. le vel: WT (1:5 0)Exp. le vel: WT (1:1 0)Exp. le vel: WT (1:5 0) E203ECL2AExp . l evel : >WT (1 :1)Exp. le vel: WT (1:5 0)Exp. le vel: WT (1:5 0) […]
Exp . l eve l: WT (1 :1) F28Exp. le vel: WT (1:5 0) C 2 8 56 .4 7AExp. le vel: WT (1:2 0) WExp. le vel: WT (1:2 0) F28Exp. le vel: WT (1:5 0)Exp . l evel : >WT (1 :1) […]
Exp. le vel: WT (1:5 0)Exp. le vel: WT (1:5 0) C 3 2 77 .4 8AExp . l eve l: WT (1 :5)Exp . l evel : >WT (1 :1)Exp . l evel : >WT (1 :1) […]
Suppl eme nt ary Figure 1 | Mutational analysis of GPR103. […]
mutants. Data are presented as mean values ± SEM, normally n=3-5; dots), each performed in triplicate. b-d Cell-surface expression (b) and QRFP26-in-duced activation of GPR103 (c, d) were analyzed by the flow cytometry and the TGFα shedding assay, respectively. From the concentration–response curves (a), Emax (c) and ΔpEC50 (d) values relative to the wild type were calculated. Colors in the mutant bars indicate an expression level matching to that of titrated wild type. Statistical analyses were performed using the ordinary one-way ANOVA followed by Dunnett tests with the expression-matched […]

With TSGPLGNLAEELNGYSRKKGGFSFRF-NH2 [QRFP26], the maximal response (Emax) (commonly the size of the effect at its maximum, as opposed to the concentration needed) is, setting by setting: (mean) 86%; (n = 3) 88.3 ± 3.6%. Moreover, the 50% effective concentration (EC50) (usually the concentration needed to bring the measured effect to its halfway point) (n = 3) is 72.4 nM.
